# Measurements reported in US20210000966A1, “HSP90-TARGETING CONJUGATES AND FORMULATIONS THEREOF” (TARVEDA THERAPEUTICS, INC., priority 2017, published 2021).
# Like-named read-outs stand apart in the source and are kept apart here.
# Legend:
# [1] = test system: human total EbB2/Her2; assay: HER2 degradation assay (ELISA) in BT474 cells; format: cell-based; settings: BT-474, 16 hrs, read-out: Her2 Degradation IC50 Abs IC50
# Procedure: BT474 (breast cancer) cells were plated at 12,000 cells per well and incubated for 20-24 hrs at 37° C. at 5% CO2. Post cell incubation, compounds were reconstituted in DMSO to a stock concentration of 5 mM. A compound plate was then prepared containing a 10 point dilution in DMSO. 2 uL of these dilutions were then added to the cells for a final working concentration of 5 uM to 0.0003 uM. Compounds and cells were incubated for 16 hrs. Media was then removed, cells washed, lysed, and analyzed for human total EbB2/Her2 levels by ELISA.
# [2] = molecular target: T1, HSP90α (Homo sapiens, UniProt P07900); assay: HSP90 binding, HSP90α Assay Kit (fluorescence polarization, labeled geldanamycin competition)
# T1 construct: purchased
# Procedure: The bindings of the conjugates to HSP90 were studied with the HSP90α Assay Kit. The HSP90α Assay Kit is designed for identification of HSP90α inhibitors using fluorescence polarization. The assay is based on the competition of fluorescently labeled geldanamycin for binding to purified recombinant HSP90α. The key to the HSP90α Assay Kit is the fluorescently labeled geldanamycin. The fluorescently labeled geldanamycin is incubated with a sample containing HSP90α enzyme to produce a change in fluorescent polarization that can then be measured using a fluorescence reader.
# [3] = test system: NCI-H460 cells; assay: NCI-H460 tumor cell cytotoxicity assay (CellTiter-Glo); format: cell-based; settings: Homo sapiens, NCI-H460, 48 h
# Procedure: NCI-H460 cells (non-small cell lung cancer) were plated at 500 cells per well and incubated for 20-24 hrs at 37° C. at 5% CO2. Post cell incubation, compounds were reconstituted in DMSO to a stock concentration of 200 uM. A compound plate was then prepared containing a 10 point dilution in RPMI+10% FBS+0.25% DMSO. 5 uL of the dilution was then added for a final working concentration range of 10 uM to 0.0005 uM. Compounds and cells were then incubated for 48 hrs. Cells were then analyzed by CellTiter-Glo for ATP levels and percent inhibition calculated.
# [4] = test system: PARP; assay: PARP inhibiting activity (FIG. 8A); format: biochemical; settings: in words
# From the text: (§1) The activity of the respective payload is blocked until the linker moiety gets cleaved in the tumor and releases active unblocked payload. Through the HSP90 platform, toxicity is mitigated by masking the payload's active site until it can be delivered to the tumor.
# (§2) FIG. 8A compares the activity of Conjugate 45 and its payload (talazoparib). FIG. 8B compares the activity of Conjugate 46 and its payload (ulixertinib). FIG. 8C compares the activity of Conjugate 47 and its payload TAK-733. The data further support that attaching a payload to a HSP90 binding ligand blocks the target activity of the payload. The HSP90 bindings of the HSP90 ligands are not affected.
# [5] = test system: ERK1/2; assay: ERK1/2 inhibiting activity (FIG. 8B); format: biochemical; settings: in words
# From the text: as §1, §2
# [6] = molecular target: T2, topoisomerase-I (Homo sapiens, UniProt P11387); assay: DNA damage / topoisomerase activity (FIG. 9); format: biochemical; settings: FIG. 9, in words
# T2 sequence (P11387 1-765): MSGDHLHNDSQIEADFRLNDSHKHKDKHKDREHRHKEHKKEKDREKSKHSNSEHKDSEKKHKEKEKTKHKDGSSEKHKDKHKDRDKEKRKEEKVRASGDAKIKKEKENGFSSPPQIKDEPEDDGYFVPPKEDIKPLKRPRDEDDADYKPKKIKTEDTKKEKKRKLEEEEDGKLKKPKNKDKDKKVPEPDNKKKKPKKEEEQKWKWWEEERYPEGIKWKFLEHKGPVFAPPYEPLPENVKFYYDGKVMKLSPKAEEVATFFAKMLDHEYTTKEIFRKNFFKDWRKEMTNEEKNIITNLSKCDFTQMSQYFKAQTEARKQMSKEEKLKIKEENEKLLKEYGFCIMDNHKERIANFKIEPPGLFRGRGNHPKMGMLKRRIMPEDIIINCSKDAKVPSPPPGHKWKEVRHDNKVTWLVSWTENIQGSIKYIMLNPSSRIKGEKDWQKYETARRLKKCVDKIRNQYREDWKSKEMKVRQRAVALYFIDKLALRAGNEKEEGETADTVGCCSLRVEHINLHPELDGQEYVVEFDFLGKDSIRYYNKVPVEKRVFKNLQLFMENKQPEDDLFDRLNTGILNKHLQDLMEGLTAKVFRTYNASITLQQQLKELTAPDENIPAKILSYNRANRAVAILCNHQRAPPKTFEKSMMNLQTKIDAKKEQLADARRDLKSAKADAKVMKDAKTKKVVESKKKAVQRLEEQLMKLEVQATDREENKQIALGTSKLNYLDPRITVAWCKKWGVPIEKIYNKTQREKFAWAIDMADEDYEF
# From the text: In one further study, DNA damage caused by Conjugate 48 (a conjugate comprising a ganetespib derivative and SN-38) was compared with the DNA damage caused by SN-38, the payload of Conjugate 48. SN-38 and its pre-drug, irinotecan (an analog of camptothecin), are inhibitors of topoisomerase-I and potently cause DNA damage that results in nicks in the DNA. […] The conjugation of SN-38 to the HSP90 ligand results in the masking of the activity of SN-38 until it can be selectively delivered to tumors where linker cleavage occurs.
# [7] = test system: LS174t colon tumor xenograft; assay: LS174t colon tumor xenograft model, efficacy; format: in vivo, mice; settings: FIG. 3A, in words
# [8] = format: in vivo, mice; settings: LS174t xenograft, in words
# Procedure: Accumulation and retention of Conjugate 38 was tested in this tumor xenograft model.
# [9] = Glucose levels post dosing in mice; format: in vivo; settings: FIG. 7, in words
# From the text: In an in vivo study in mice, glucose levels were monitored post PI3K inhibitor (Copanlisib) and Conjugate 38 dosing. […] Therefore, conjugating a PI3K enzyme inhibitor payload to a HSP90 targeting ligand reduced the normal tissue activity of glucose increase in mice.
# [10] = n = 1, read-out: H460 in vitro cytotoxicity
# [11] = n = 2, read-out: H460 in vitro cytotoxicity
structure (smiles),measurement,setting,value
CCNC(=O)c1nnc(-c2cc(C(C)C)c(O)cc2O)n1-c1ccc(C(=O)N2CCN(c3ccc(OC(=O)N4CCN(CCCOc5ccc6c(c5OC)N=C(NC(=O)c5cnc(N)nc5)N5CCN=C65)CC4)cc3)CC2)cc1 [Compound 29],IC50,[1],59 nM
same,Kd,[2]; read-out: HSP90 Binding Kd,1.03 nM
CCNC(=O)c1nnc(-c2cc(C(C)C)c(O)cc2O)n1-c1ccc(CN2CCN(C(=O)c3ccc(OC(=O)N4CCN(CCCOc5ccc6c(c5OC)N=C(NC(=O)c5cnc(N)nc5)N5CCN=C65)CC4)cc3)CC2)cc1 [Compound 30],IC50,[1],38 nM
same,Kd,[2]; read-out: HSP90 Binding Kd,0.68 nM
CCNC(=O)c1nnc(-c2cc(C(C)C)c(O)cc2O)n1-c1ccc(CN2CCC(C(=O)N3CCN(c4ccc(OC(=O)N5CCN(CCCOc6ccc7c(c6OC)N=C(NC(=O)c6cnc(N)nc6)N6CCN=C76)CC5)cc4)CC3)CC2)cc1 [Compound 31],IC50,[1],103 nM
same,Kd,[2]; read-out: HSP90 Binding Kd,1.38 nM
CCNC(=O)c1nnc(-c2cc(C(C)C)c(O)cc2O)n1-c1ccc(C(=O)N2CCN(Cc3ccc(OC(=O)N4CCN(CCCOc5ccc6c(c5OC)N=C(NC(=O)c5cnc(N)nc5)N5CCN=C65)CC4)cc3)CC2)cc1 [Compound 32],IC50,[1],49 nM
same,Kd,[2]; read-out: HSP90 Binding Kd,0.86 nM
CCNC(=O)c1nnc(-c2cc(C(C)C)c(O)cc2O)n1-c1ccc(C(=O)N2CCN(Cc3ccc(OC(=O)N4CCN(CCCOc5ccc6c(c5OC)N=C(NC(=O)c5cnc(N)nc5)N5CCN=C65)CC4)c(C)c3)CC2)cc1 [Compound 33],IC50,[1],41 nM
same,Kd,[2]; read-out: HSP90 Binding Kd,1.03 nM
CCNC(=O)c1nnc(-c2cc(C(C)C)c(O)cc2O)n1-c1ccc(C(=O)NCc2cc(C)c(OC(=O)N3CCN(CCCOc4ccc5c(c4OC)N=C(NC(=O)c4cnc(N)nc4)N4CCN=C54)CC3)c(C)c2)cc1 [Compound 34],IC50,[1],141 nM
same,Kd,[2]; read-out: HSP90 Binding Kd,1.37 nM
CCNC(=O)c1nnc(-c2cc(C(C)C)c(O)cc2O)n1-c1ccc(CN2CCN(C(=O)N3CCN(CCCOc4ccc5c(c4OC)N=C(NC(=O)c4cnc(N)nc4)N4CCN=C54)CC3)CC2)cc1 [Compound 36],IC50,[1],72 nM
CCNC(=O)c1nnc(-c2cc(C(C)C)c(O)cc2O)n1-c1ccc(CN2CCN(C(=O)Oc3ccc(OC(=O)N4CCN(CCCOc5ccc6c(c5OC)N=C(NC(=O)c5cnc(N)nc5)N5CCN=C65)CC4)cc3)CC2)cc1 [Compound 37],IC50,[1],119 nM
COc1c(OCCCN2CCN(C(=O)Oc3ccc(CC(=O)N4CCN(Cc5ccc(-n6c(O)nnc6-c6cc(C(C)C)c(O)cc6O)cc5)CC4)cc3)CC2)ccc2c1N=C(NC(=O)c1cnc(N)nc1)N1CCN=C21 [Compound 39],IC50,[1],> 20000 nM
same,Kd,[2]; read-out: HSP90 Binding Kd,1.8 nM
COc1c(OCCCN2CCN(C(=O)Oc3ccc(CC(=O)N4CCC(CCn5ccc6cc(-n7c(O)nnc7-c7cc(C(C)C)c(O)cc7O)ccc65)CC4)cc3)CC2)ccc2c1N=C(NC(=O)c1cnc(N)nc1)N1CCN=C21 [Compound 40],IC50,[3]; [10],247 nM
same,IC50,[3]; [11],56 nM
CCNC(=O)c1nnc(-c2cc(C(C)C)c(O)cc2O)n1-c1ccc(C(=O)NCCc2ccc(OC(=O)N(CCCOc3ccc4c(c3OC)N=C(NC(=O)c3cnc(N)nc3)N3CCN=C43)C(C)C)cc2)cc1 [Compound 42],IC50,[3]; [10],135 nM
same,IC50,[3]; [11],147 nM
CCNC(=O)c1nnc(-c2cc(C(C)C)c(O)cc2O)n1-c1ccc(CN2CCN(C(=O)Cc3ccc(CC(=O)N(C)CCCOc4ccc5c(c4OC)N=C(NC(=O)c4cnc(N)nc4)N4CCN=C54)cc3)CC2)cc1 [Compound 43],IC50,[3]; [10],42 nM
same,IC50,[3]; [11],31 nM
CCNC(=O)c1nnc(-c2cc(C(C)C)c(O)cc2O)n1-c1ccc(C(=O)NCCc2ccc(OC(=O)N(C)CCCOc3ccc4c(c3OC)N=C(NC(=O)c3cnc(N)nc3)N3CCN=C43)cc2)cc1 [Compound 44],IC50,[3]; [10],527 nM
same,IC50,[3]; [11],325 nM
CC(C)c1cc(-c2nnc(O)n2-c2ccc(CN3CCN(CCC(C)(C)SS[C@H](C)COC(=O)N(CCN(C)C)Cn4nc5c6c(cc(F)cc6c4=O)N[C@H](c4ccc(F)cc4)[C@H]5c4ncnn4C)CC3)cc2)c(O)cc1O [Compound 45],Kd,[2]; read-out: HSP90 KD,0.33 nM
CCNC(=O)c1nnc(-c2cc(C(C)C)c(O)cc2O)n1-c1ccc(CN2CCC(C(=O)N3CCC(C(=O)OC[C@@H](NC(=O)c4cc(-c5cc(NC(C)C)ncc5Cl)c[nH]4)c4cccc(Cl)c4)CC3)CC2)c(F)c1 [Compound 46],Kd,[2]; read-out: HSP90 KD,1 nM
CCNC(=O)c1nnc(-c2cc(C(C)C)c(O)cc2O)n1-c1ccc(N(C)C2CCN(C(=O)CCC(=O)OC[C@H](O)Cn3cnc4c(c(Nc5ccc(I)cc5F)c(F)c(=O)n4C)c3=O)CC2)cc1 [Compound 47],Kd,[2]; read-out: HSP90 KD,1.2 nM
CC(C)c1cc(-c2nnc(O)n2-c2ccc(CN3CCN(CCC(C)(C)SS[C@H](C)COC(=O)N(CCN(C)C)Cn4nc5c6c(cc(F)cc6c4=O)N[C@H](c4ccc(F)cc4)[C@H]5c4ncnn4C)CC3)cc2)c(O)cc1O [Conjugate 45],PARP inhibiting activity compared with payload (talazoparib),[4],lower than its payload
CCNC(=O)c1nnc(-c2cc(C(C)C)c(O)cc2O)n1-c1ccc(CN2CCC(C(=O)N3CCC(C(=O)OC[C@@H](NC(=O)c4cc(-c5cc(NC(C)C)ncc5Cl)c[nH]4)c4cccc(Cl)c4)CC3)CC2)c(F)c1 [Conjugate 46],ERK1/2 inhibiting activity compared with payload (ulixertinib),[5],lower than its payload
CCc1c2c(nc3ccc(OC(=O)N4CCC(CCn5ccc6cc(-n7c(O)nnc7-c7cc(C(C)C)c(O)cc7O)ccc65)CC4)cc13)-c1cc3c(c(=O)n1C2)COC(=O)[C@]3(O)CC [Conjugate 48],DNA damage,[6],negligible levels of DNA damage up to 100 uM
"COc1c(OCCCN2CCOCC2)ccc2c1N=C(NC(=O)c1cnc(N)nc1)N1CCN=C21 [Copanlisib, reference compound]",efficacy (tumor growth inhibition) in LS174t xenograft,[7],lack of efficacy
same,tumor retention time,[8],much shorter tumor retention time
same,glucose concentration after dosing,[9],increase in glucose levels
CCc1c2c(nc3ccc(O)cc13)-c1cc3c(c(=O)n1C2)COC(=O)[C@]3(O)CC [SN-38],DNA damage,[6],DNA damage even at 1 uM
"CC(C)c1cc(-c2nnc(O)n2-c2ccc3c(ccn3C)c2)c(O)cc1O [ganetespib, reference compound]",efficacy (tumor growth inhibition) in LS174t xenograft,[7],lack of efficacy
same,DNA damage,[6],none
CCc1c2c(nc3ccc(OC(=O)N4CCC(N5CCCCC5)CC4)cc13)-c1cc3c(c(=O)n1C2)COC(=O)[C@]3(O)CC [irinotecan],DNA damage,[6],moderate level of DNA damaging activity
